Source: patent US20220112178A1, “Small Molecule Modulators of RAS GTPase” (Tosk, Inc., priority 2020, published 2022)

Test system: SW620 cells
Test: Cell proliferation / cytotoxicity assay (CellTiter-Glo) in SW620 cells
Format: cell-based
Conditions: SW620 cells (ATCC CCL-227), 72 hours, CellTiter-Glo 2.0 luminescence
Protocol: Compounds are assayed for inhibition of cell proliferation and killing cancer cells. Cytotoxicity assays are conducted according to the following general procedure. SW620 cells (ATCC CCL-227) are maintained in DMEM Low Glucose (Corning 10-014-CV) media supplemented with 10% fetal bovine serum and 1% PenStrep and grown at 37° C. in 5% CO2. Cells are plated into 96 well flat bottom plates (2 million/plate, ˜20,000/well, 200 μL media/well). The cells are allowed to settle and adhere to the plate bottom overnight. Compounds are diluted in media from a 10 mM stock solution starting at 50 μM, using 2-fold dilutions, in a column in a 96-well plate. Media is removed from the plate containing cells and replaced with media containing diluted compounds, Plates are incubated 72 hours at 37° C. in 5% CO2. Plates are allowed to come to room temperature and 100 μL CellTiter-Glo 2.0 reagent (Promega, G924C) is added at room temperature. Plates are shaken for 2 minutes, then allowed to stand for 15 minutes. Luminescence is read with FLx800 (BioTek Instruments). Data is plotted with GraphPad Prizm 8.0.

Structure (SMILES)	IC50 (Homo sapiens, SW-620) [µM]	other results
Cc1nc(N[C@@H]2CC[C@H](NC(=O)OC(C)(C)C)C2)nc2ccc(-c3cccc4c3OCCO4)cc12 [Compound 1]	5 to 10	
Cc1nc(N[C@@H]2CC[C@H](NC(=O)c3ccc(Cl)cc3)C2)nc2ccc(-c3cccc4c3OCCO4)cc12 [Compound 2]	5 to 10	
Cc1nc(N[C@@H]2CC[C@H](N3Cc4ccccc4CC3=O)C2)nc2ccc(-c3cccc4c3OCCO4)cc12 [Compound 3]	5 to 10	
Cc1nc(N[C@@H]2CC[C@H](NC(=O)OC(C)(C)C)C2)nc2ccc(-c3ccnc4c3OCCO4)cc12 [Compound 4]	< 5	
Cc1nc(N[C@@H]2CC[C@H](NC(=O)c3ccc(Cl)cc3)C2)nc2ccc(-c3cccc4c3CCCC4)cc12 [Compound 5]	< 5	
Cc1nc(N[C@@H]2CC[C@H](NC(=O)c3ccccc3Cl)C2)nc2ccc(-c3ccnc4c3OCCO4)cc12 [Compound 6]	< 5	
Cc1nc(N[C@@H]2CC[C@H](N3Cc4ccccc4CC3=O)C2)nc2ccc(-c3ccnc4c3OCCO4)cc12 [Compound 7]	5 to 10	
Cc1nc(N[C@@H]2CC[C@H](NC(=O)c3ccc(Cl)cc3)C2)nc2ccc(-c3ccnc4c3OCCO4)cc12 [Compound 8]	< 5	
Cc1nccc(-c2ccc3nc(N[C@@H]4CC[C@H](NC(=O)c5ccc(Cl)cc5)C4)nc(C)c3c2)c1Cl [Compound 9]	< 5	
Cc1nc(N[C@@H]2CC[C@H](N)C2)nc2ccc(-c3ccnc4c3OCCO4)cc12 [Compound 10]	5 to 10	
Cc1nc(N[C@@H]2CC[C@@H](NC(=O)OC(C)(C)C)C2)nc2ccc(-c3ccnc4c3OCCO4)cc12 [Compound 11]	< 5	
Cc1ccc2ccc(F)c(-c3ccc4nc(N[C@@H]5CC[C@@H](NC(=O)OC(C)(C)C)C5)nc(C)c4c3)c2n1 [Compound 12]	5 to 10	
Cc1nn(C)c(C(=O)N[C@H]2CC[C@@H](Nc3nc(C)c4cc(-c5ccnc6c5OCCO6)ccc4n3)C2)c1Cl [Compound 13]	< 5	
Cc1ncccc1C(=O)N[C@H]1CC[C@@H](Nc2nc(C)c3cc(-c4ccnc5c4OCCO5)ccc3n2)C1 [Compound 14]	< 5	
Cc1ccc2ccc(F)c(-c3ccc4nc(N[C@@H]5CC[C@H](NC(=O)OC(C)(C)C)C5)nc(C)c4c3)c2n1 [Compound 15]	5 to 10	
Cc1nccc(-c2ccc3nc(N[C@@H]4CC[C@H](NC(=O)OC(C)(C)C)C4)nc(C)c3c2)c1Cl [Compound 16]	5 to 10	
Cc1nc(N[C@@H]2CC[C@H](NC(=O)OC(C)(C)C)C2)nc2ccc(-c3ccnc4c3OCCO4)cc12 [Compound 17]		IC50: < 5 µM
Cc1nc(N[C@H]2CC[C@@H](NC(=O)OC(C)(C)C)C2)nc2ccc(-c3ccnc4c3OCCO4)cc12 [Compound 18]	< 5	
Cc1nc(N[C@@H]2CC[C@H](NC(=O)OC(C)(C)C)C2)nc2ccc(-c3ccnc4c3OCCO4)cc12 [Compound 19]		IC50: < 5 µM
COc1nccc(-c2ccc3nc(N[C@@H]4CC[C@H](NC(=O)OC(C)(C)C)C4)nc(C)c3c2)c1Cl [Compound 21]	5 to 10	
COc1c(Cl)cccc1-c1ccc2nc(N[C@@H]3CC[C@H](NC(=O)OC(C)(C)C)C3)nc(C)c2c1 [Compound 22]	5 to 10	
Cc1nc(N[C@@H]2CC[C@H](N3CCNC3=O)C2)nc2ccc(-c3ccnc4c3OCCO4)cc12 [Compound 26]	5 to 10	
Cc1nc(N[C@@H]2CC[C@H](NC(=O)C(C)(C)C)C2)nc2ccc(-c3ccnc4c3OCCO4)cc12 [Compound 27]	< 5	

Structure (SMILES)	IC50 (Homo sapiens, SW-620) [µM]	other results
Cc1ccc2ccc(F)c(-c3ccc4nc(N[C@H]5CC[C@@H](NC(=O)OC(C)(C)C)C5)nc(C)c4c3)c2n1 [Compound 28]	5 to 10	
Cc1nc(N[C@@H]2CC[C@H](NC(=O)Cn3cccn3)C2)nc2ccc(-c3cccc4c3CCCC4)cc12 [Compound 29]	< 5	
Cc1ccc2ccc(F)c(-c3ccc4nc(N[C@@H]5CC[C@H](NC(=O)OC(C)(C)C)C5)nc(C)c4c3)c2n1 [Compound 30]		IC50: 5 to 10 µM
COc1ncccc1-c1ccc2nc(N[C@@H]3CC[C@H](NC(=O)OC(C)(C)C)C3)nc(C)c2c1 [Compound 31]	5 to 10	
Cc1nc(N[C@@H]2CC[C@H](NS(=O)(=O)c3ccc(C#N)cc3)C2)nc2ccc(-c3ccnc4c3OCCO4)cc12 [Compound 32]	< 5	
Cc1nc(N[C@@H]2CC[C@H](NC(=O)O[C@H]3CCN(C)C3)C2)nc2ccc(-c3ccnc4c3OCCO4)cc12 [Compound 33]	< 5	
Cc1nc(N[C@@H]2CC[C@H](NC(=O)OCc3nccn3C)C2)nc2ccc(-c3ccnc4c3OCCO4)cc12 [Compound 34]	< 5	
Cc1nc(N[C@@H]2CC[C@H](NC(=O)OCc3ncco3)C2)nc2ccc(-c3ccnc4c3OCCO4)cc12 [Compound 35]	< 5	
Cc1nc(N[C@@H]2CC[C@H](NC(=O)OCc3ccon3)C2)nc2ccc(-c3ccnc4c3OCCO4)cc12 [Compound 36]	< 5	
Cc1nc(N[C@@H]2CC[C@H](NC(=O)OC[C@H]3CCCN3C)C2)nc2ccc(-c3ccnc4c3OCCO4)cc12 [Compound 37]	< 5	
Cc1nc(N[C@@H]2CC[C@H](NC(=O)OC[C@@H]3CCCN3C)C2)nc2ccc(-c3ccnc4c3OCCO4)cc12 [Compound 38]	< 5	
Cc1nc(N[C@@H]2CC[C@H](NC(=O)O[C@@H]3CCN(C)C3)C2)nc2ccc(-c3ccnc4c3OCCO4)cc12 [Compound 39]	< 5	
Cc1nc(N[C@@H]2CC[C@H](NC(=O)OCc3ccno3)C2)nc2ccc(-c3ccnc4c3OCCO4)cc12 [Compound 40]	< 5	
Cc1cc(COC(=O)N[C@H]2CC[C@@H](Nc3nc(C)c4cc(-c5ccnc6c5OCCO6)ccc4n3)C2)on1 [Compound 41]	< 5	
C=CC(=O)N[C@H]1CC[C@@H](Nc2nc(C)c3cc(-c4ccnc5c4OCCO5)ccc3n2)C1 [Compound 42]	< 5	
Cc1nc(N[C@@H]2CC[C@H](NC(=O)OC(C)(C)C)C2)nc2ccc(-c3ccnc4c3OCCO4)c(F)c12 [Compound 43]	< 5	
Cc1nc(N[C@@H]2CC[C@H](NC(=O)OC(C)(C)C)C2)nc2ccc(-c3c(Cl)cnc4c3OCCO4)cc12 [Compound 44]	< 5	
Cc1nc(N[C@@H]2CC[C@H](NC(=O)OC(C)(C)C)C2)nc2ccc(-c3cc[n+]([O-])c4c3OCCO4)cc12 [Compound 45]	< 5	
Cc1nc(N[C@@H]2CC[C@H](NC(=O)OC(C)(C)C)C2)[n+]([O-])c2ccc(-c3ccnc4c3OCCO4)cc12 [Compound 46]	< 5	
Cc1nc(N[C@@H]2CC[C@H](NC(=O)c3nnn(C(C)(C)C)n3)C2)nc2ccc(-c3ccnc4c3OCCO4)cc12 [Compound 47]	< 5	
Cc1nc(N[C@@H]2CC[C@H](NC(=O)c3nnn(C(C)(C)C)n3)C2)nc2ccc(-c3ccnc4c3OCCO4)c(F)c12 [Compound 48]	< 5	
Cc1nc(N[C@H]2CCN(Cc3ccc(Cl)cc3)C2)nc2ccc(-c3cccc4c3CCCC4)cc12 [Compound 91]		IC50 (Homo sapiens, SW-620, Table 2): < 5 µM
Cc1nc(N[C@@H]2CCN(Cc3ccc(Cl)cc3)C2)nc2ccc(-c3cccc4c3CCCC4)cc12 [Compound 92]		IC50 (Homo sapiens, SW-620, Table 2): 5 to 10 µM
